Measurements published in publication PMC5218480 (PLoS ONE, 2017).

System: MV-4-11 cells
Assay: Gene expression microarray analysis (Affymetrix PrimeView) and GSEA
Type: cell-based, human
Design: RFU PODN (11730768_x_at) / Fold change /veh PODN (11730768_x_at) / RFU LINC00158 (11744669_a_at) / Fold change /veh LINC00158 (11744669_a_at) / RFU DUSP10 (11751237_a_at) / Fold change /veh DUSP10 (11751237_a_at) / RFU ID3 (11757404_x_at) / Fold change /veh ID3 (11757404_x_at) / RFU PLEKHG5 (11737974_s_at) / Fold change /veh PLEKHG5 (11737974_s_at) / RFU LRRC4B (11730491_at) / Fold change /veh LRRC4B (11730491_at) / RFU GIMAP4 (11747438_a_at) / Fold change /veh GIMAP4 (11747438_a_at) / RFU KRT8 (11758183_x_at) / Fold change /veh KRT8 (11758183_x_at) / RFU CNN1 (11734310_a_at) / Fold change /veh CNN1 (11734310_a_at) / RFU VPS37D (11726825_at) / Fold change /veh VPS37D (11726825_at) / RFU C10orf10 (11716522_x_at) / Fold change /veh C10orf10 (11716522_x_at) / RFU KIR2DL2 /// KIR2DL4 /// KIR2DL5A /// KIR2DL5B /// KIR2DS1 /// KIR2DS2 /// KIR2DS3 /// KIR2DS4 /// KIR3DL3 /// KIR3DL3 /// KIR3DS1 (11738374_at) / Fold change /veh KIR2DL2 /// KIR2DL4 /// KIR2DL5A /// KIR2DL5B /// KIR2DS1 /// KIR2DS2 /// KIR2DS3 /// KIR2DS4 /// KIR3DL3 /// KIR3DL3 /// KIR3DS1 (11738374_at) / RFU C1QL1 (11718748_at) / Fold change /veh C1QL1 (11718748_at) / RFU TMPRSS4 (11747572_a_at) / Fold change /veh TMPRSS4 (11747572_a_at) / RFU HAMP (11756126_x_at) / Fold change /veh HAMP (11756126_x_at) / RFU RNFT2 (11725882_a_at) / Fold change /veh RNFT2 (11725882_a_at) / RFU NR4A2 (11747474_a_at) / Fold change /veh NR4A2 (11747474_a_at) / RFU ABCC12 (11746883_a_at) / Fold change /veh ABCC12 (11746883_a_at) / RFU TMEM136 (11760407_x_at) / Fold change /veh TMEM136 (11760407_x_at) / RFU CLDN22 /// WWC2 (11732394_at) / Fold change /veh CLDN22 /// WWC2 (11732394_at) / RFU HLA-DPB1 (11760878_x_at) / Fold change /veh HLA-DPB1 (11760878_x_at) / RFU SPINT1 (11716480_a_at) / Fold change /veh SPINT1 (11716480_a_at) / RFU GAP43 (11754022_s_at) / Fold change /veh GAP43 (11754022_s_at) / RFU A4GNT (11735810_at) / Fold change /veh A4GNT (11735810_at) / RFU PRB3 (11715151_x_at) / Fold change /veh PRB3 (11715151_x_at) / RFU TUBB4B (11761932_at) / Fold change /veh TUBB4B (11761932_at) / RFU CAPN14 (11732068_a_at) / Fold change /veh CAPN14 (11732068_a_at) / RFU TMCC2 (11721928_a_at) / Fold change /veh TMCC2 (11721928_a_at) / RFU IRGQ (11745062_a_at) / Fold change /veh IRGQ (11745062_a_at) / RFU FAM174B (11720279_a_at) / Fold change /veh FAM174B (11720279_a_at) / RFU TMPRSS4 (11748680_a_at) / Fold change /veh TMPRSS4 (11748680_a_at) / RFU FAM212B (11763350_a_at) / Fold change /veh FAM212B (11763350_a_at) / RFU PLEKHG5 (11743358_a_at) / Fold change /veh PLEKHG5 (11743358_a_at) / RFU ZSCAN30 (11745921_a_at) / Fold change /veh ZSCAN30 (11745921_a_at) / RFU CMKLR1 (11741424_a_at) / Fold change /veh CMKLR1 (11741424_a_at) / RFU LOC101060620 /// MAPK8IP1 (11723275_at) / Fold change /veh LOC101060620 /// MAPK8IP1 (11723275_at) / RFU SPTSSB (11747773_x_at) / Fold change /veh SPTSSB (11747773_x_at) / RFU PRSS12 (11739890_at) / Fold change /veh PRSS12 (11739890_at) / RFU BIN1 (11741810_x_at) / Fold change /veh BIN1 (11741810_x_at) / RFU WNT11 (11732464_a_at) / Fold change /veh WNT11 (11732464_a_at) / RFU C10orf10 (11716521_a_at) / Fold change /veh C10orf10 (11716521_a_at) / RFU C5orf56 (11738089_at) / Fold change /veh C5orf56 (11738089_at) / RFU CYB561 (11721691_x_at) / Fold change /veh CYB561 (11721691_x_at) / RFU ANKRD19P (11752326_a_at) / Fold change /veh ANKRD19P (11752326_a_at) / RFU OR2T12 /// OR2T33 /// OR2T8 (11738714_s_at) / Fold change /veh OR2T12 /// OR2T33 /// OR2T8 (11738714_s_at) / RFU VCAN (11748164_a_at) / Fold change /veh VCAN (11748164_a_at) / RFU JSRP1 (11732532_at) / Fold change /veh JSRP1 (11732532_at) / RFU KRTAP10-11 (11738290_x_at) / Fold change /veh KRTAP10-11 (11738290_x_at) / RFU MYO3A (11730013_a_at) / Fold change /veh MYO3A (11730013_a_at) / RFU EBF3 (11725865_a_at) / Fold change /veh EBF3 (11725865_a_at) / RFU CAMK2N1 (11719241_x_at) / Fold change /veh CAMK2N1 (11719241_x_at) / RFU C5orf56 (11738088_a_at) / Fold change /veh C5orf56 (11738088_a_at) / RFU OLFML3 (11715873_a_at) / Fold change /veh OLFML3 (11715873_a_at) / RFU LOC100653217 /// NTM (11731650_a_at) / Fold change /veh LOC100653217 /// NTM (11731650_a_at) / RFU MAPK11 (11762145_a_at) / Fold change /veh MAPK11 (11762145_a_at) / RFU FIZ1 (11724087_x_at) / Fold change /veh FIZ1 (11724087_x_at) / RFU OASL (11726364_x_at) / Fold change /veh OASL (11726364_x_at) / RFU SOX15 (11748057_x_at) / Fold change /veh SOX15 (11748057_x_at) / RFU CD79A (11719716_a_at) / Fold change /veh CD79A (11719716_a_at) / RFU HIST1H1D (11736915_at) / Fold change /veh HIST1H1D (11736915_at) / RFU CASKIN2 (11723855_a_at) / Fold change /veh CASKIN2 (11723855_a_at) / RFU LOC730098 (11760151_x_at) / Fold change /veh LOC730098 (11760151_x_at) / RFU OR4N2 (11742367_at) / Fold change /veh OR4N2 (11742367_at) / RFU PRRT2 (11749266_a_at) / Fold change /veh PRRT2 (11749266_a_at) / RFU SNX32 (11753110_a_at) / Fold change /veh SNX32 (11753110_a_at) / RFU CDHR5 (11726645_a_at) / Fold change /veh CDHR5 (11726645_a_at) / RFU RCAN1 (11760418_a_at) / Fold change /veh RCAN1 (11760418_a_at) / RFU FAM167A (11723789_a_at) / Fold change /veh FAM167A (11723789_a_at) / RFU FAM26E (11764081_at) / Fold change /veh FAM26E (11764081_at) / RFU ISYNA1 (11749810_s_at) / Fold change /veh ISYNA1 (11749810_s_at) / RFU ACY1 (11761880_at) / Fold change /veh ACY1 (11761880_at) / RFU 11764098_at / Fold change /veh 11764098_at / RFU SAMD14 (11745864_x_at) / Fold change /veh SAMD14 (11745864_x_at) / RFU NPB (11741838_a_at) / Fold change /veh NPB (11741838_a_at) / RFU TMPRSS6 (11731388_a_at) / Fold change /veh TMPRSS6 (11731388_a_at) / RFU KRTAP10-2 (11738614_at) / Fold change /veh KRTAP10-2 (11738614_at) / RFU ARHGAP8 /// PRR5-ARHGAP8 (11727945_x_at) / Fold change /veh ARHGAP8 /// PRR5-ARHGAP8 (11727945_x_at) / RFU KRTAP5-7 /// NADSYN1 (11734609_at) / Fold change /veh KRTAP5-7 /// NADSYN1 (11734609_at) / RFU RASL12 (11751679_a_at) / Fold change /veh RASL12 (11751679_a_at) / RFU CDKN2B (11736163_a_at) / Fold change /veh CDKN2B (11736163_a_at) / RFU PRF1 (11729649_at) / Fold change /veh PRF1 (11729649_at) / RFU, ZNF638 /// ZNF638-IT1 / Fold change vs veh, ZNF638 /// ZNF638-IT1 / RFU, PANK3 / Fold change vs veh, PANK3 / RFU, SH3YL1 / Fold change vs veh, SH3YL1 / RFU, ZEB2 / Fold change vs veh, ZEB2 / RFU, NRIP1 / Fold change vs veh, NRIP1 / RFU, PTTG1IP / Fold change vs veh, PTTG1IP / RFU, CAPN2 / Fold change vs veh, CAPN2 / RFU, MED14 / Fold change vs veh, MED14 / RFU, SNORA58 / Fold change vs veh, SNORA58 / RFU, C1orf63 / Fold change vs veh, C1orf63 / RFU, LRRFIP1 / Fold change vs veh, LRRFIP1 / RFU, NDUFAF7 / Fold change vs veh, NDUFAF7 / RFU, SLC12A2 / Fold change vs veh, SLC12A2 / RFU, IBTK / Fold change vs veh, IBTK / RFU, ESF1 / Fold change vs veh, ESF1 / Fold change vs veh, TMEM50B / RFU, TAOK1 / Fold change vs veh, TAOK1 / RFU, ACBD3 / Fold change vs veh, ACBD3 / RFU, TMA16 / Fold change vs veh, TMA16 / RFU, RWDD3 / Fold change vs veh, RWDD3 / RFU, BCAT1 / Fold change vs veh, BCAT1 / RFU, EDEM3 / Fold change vs veh, EDEM3 / RFU, TMEM33 / Fold change vs veh, TMEM33 / RFU, WDR75 / Fold change vs veh, WDR75 / RFU, AHCTF1 / Fold change vs veh, AHCTF1 / RFU, TFRC / Fold change vs veh, TFRC / RFU, ZDHHC17 / Fold change vs veh, ZDHHC17 / RFU, NOM1 / Fold change vs veh, NOM1 / RFU, ARL8B / Fold change vs veh, ARL8B / RFU, ZBTB11 / Fold change vs veh, ZBTB11 / RFU, TAMM41 / Fold change vs veh, TAMM41 / RFU, KIAA1704 /// LOC100996395 / Fold change vs veh, KIAA1704 /// LOC100996395 / RFU, ING1 / Fold change vs veh, ING1 / RFU, TRMT61B / Fold change vs veh, TRMT61B / RFU, FUBP3 / Fold change vs veh, FUBP3 / RFU, TP53 / Fold change vs veh, TP53 / RFU, TNKS2 / Fold change vs veh, TNKS2 / RFU, ZFP14 / Fold change vs veh, ZFP14 / RFU, ACTR2 / Fold change vs veh, ACTR2 / RFU, PPP3R1 / Fold change vs veh, PPP3R1 / RFU, PIK3R1 / Fold change vs veh, PIK3R1 / RFU, HNRNPA1 / Fold change vs veh, HNRNPA1 / RFU, RNF170 / Fold change vs veh, RNF170 / RFU, ZNF28 / Fold change vs veh, ZNF28 / RFU, RNGTT / Fold change vs veh, RNGTT / RFU, OGT / Fold change vs veh, OGT / RFU, BRD1 / Fold change vs veh, BRD1 / RFU, MARS / Fold change vs veh, MARS / RFU, ZNF655 / Fold change vs veh, ZNF655 / RFU, FAHD1 / Fold change vs veh, FAHD1 / RFU, BDP1 / Fold change vs veh, BDP1 / RFU, LRRCC1 / Fold change vs veh, LRRCC1 / RFU, ARID1A / Fold change vs veh, ARID1A / RFU, ZNF146 / Fold change vs veh, ZNF146 / RFU, ZNF330 / Fold change vs veh, ZNF330 / RFU, GPN3 / Fold change vs veh, GPN3 / RFU, C9orf123 / Fold change vs veh, C9orf123 / RFU, N4BP2L2 / Fold change vs veh, N4BP2L2 / RFU, ARFIP1 / Fold change vs veh, ARFIP1 / RFU, FAM179B / Fold change vs veh, FAM179B / RFU, BCL10 / Fold change vs veh, BCL10 / RFU, UHRF1BP1L / Fold change vs veh, UHRF1BP1L / RFU, BET1 / Fold change vs veh, BET1 / RFU, CNOT2 / Fold change vs veh, CNOT2 / RFU, ZNF268 / Fold change vs veh, ZNF268 / Fold change vs veh, ZNF507 / RFU, DGCR2 / Fold change vs veh, DGCR2 / RFU, WDSUB1 / Fold change vs veh, WDSUB1 / Fold change vs veh, HSP90B1 /// MIR3652 / RFU, ADSS / Fold change vs veh, ADSS / RFU, GK / Fold change vs veh, GK / RFU, ZNF148 / Fold change vs veh, ZNF148 / RFU, TAF9 / Fold change vs veh, TAF9 / RFU, SLC1A5 / Fold change vs veh, SLC1A5 / RFU, SLMO2 / Fold change vs veh, SLMO2 / RFU, ABCC4 / Fold change vs veh, ABCC4 / RFU, LOC101060439 /// RAP1B / Fold change vs veh, LOC101060439 /// RAP1B / RFU, RFX7 / Fold change vs veh, RFX7 / RFU, GTPBP10 / Fold change vs veh, GTPBP10 / RFU, CNEP1R1 / Fold change vs veh, CNEP1R1 / RFU, BIVM-ERCC5 /// ERCC5 / Fold change vs veh, BIVM-ERCC5 /// ERCC5 / RFU, ILF3 / Fold change vs veh, ILF3 / RFU 11762660_at / Fold change /veh 11762660_at / RFU VCAN (11757783_s_at) / Fold change /veh VCAN (11757783_s_at) / RFU DDX43 (11728927_at) / Fold change /veh DDX43 (11728927_at) / RFU KRT8 (11758188_x_at) / Fold change /veh KRT8 (11758188_x_at) / RFU NKD1 (11759106_at) / Fold change /veh NKD1 (11759106_at) / RFU SRD5A1 (11742802_a_at) / Fold change /veh SRD5A1 (11742802_a_at) / RFU TPSAB1 /// TPSB2 (11721975_s_at) / Fold change /veh TPSAB1 /// TPSB2 (11721975_s_at) / RFU GSTM3 (11746129_a_at) / Fold change /veh GSTM3 (11746129_a_at) / RFU IL23R (11737362_x_at) / Fold change /veh IL23R (11737362_x_at) / RFU TMEM51 (11727254_a_at) / Fold change /veh TMEM51 (11727254_a_at) / RFU PIWIL2 (11732686_x_at) / Fold change /veh PIWIL2 (11732686_x_at) / RFU ORM1 (11744905_x_at) / Fold change /veh ORM1 (11744905_x_at) / RFU CCDC152 (11743942_at) / Fold change /veh CCDC152 (11743942_at) / RFU ECM1 (11717891_a_at) / Fold change /veh ECM1 (11717891_a_at) / RFU IL23R (11748794_a_at) / Fold change /veh IL23R (11748794_a_at) / RFU TNFAIP8L3 (11732012_x_at) / Fold change /veh TNFAIP8L3 (11732012_x_at) / RFU MBOAT4 (11741988_at) / Fold change /veh MBOAT4 (11741988_at) / RFU 11764193_at / Fold change /veh 11764193_at / RFU TMEM53 (11763286_at) / Fold change /veh TMEM53 (11763286_at) / RFU MAGEB2 (11727129_at) / Fold change /veh MAGEB2 (11727129_at) / RFU TMEM200A (11744735_a_at) / Fold change /veh TMEM200A (11744735_a_at) / RFU CCDC152 (11751479_a_at) / Fold change /veh CCDC152 (11751479_a_at) / RFU FAM211A (11726209_a_at) / Fold change /veh FAM211A (11726209_a_at) / RFU RGS16 (11746705_a_at) / Fold change /veh RGS16 (11746705_a_at) / RFU VCAN (11755009_s_at) / Fold change /veh VCAN (11755009_s_at) / RFU RHOB (11743442_s_at) / Fold change /veh RHOB (11743442_s_at) / RFU RGS16 (11720943_a_at) / Fold change /veh RGS16 (11720943_a_at) / RFU RGS16 (11720944_at) / Fold change /veh RGS16 (11720944_at) / RFU, VPS4B / Fold change vs veh, VPS4B / RFU, CREB1 / Fold change vs veh, CREB1 / RFU, DNAJC13 / Fold change vs veh, DNAJC13 / RFU, GNAQ / Fold change vs veh, GNAQ / RFU, CDK5R1 / Fold change vs veh, CDK5R1 / RFU, ZRANB3 / Fold change vs veh, ZRANB3 / RFU, CUL4A / Fold change vs veh, CUL4A / RFU, CCNY / Fold change vs veh, CCNY / RFU, UFL1 / Fold change vs veh, UFL1 / RFU, COG3 / Fold change vs veh, COG3 / RFU, DIAPH2 / Fold change vs veh, DIAPH2 / RFU, SKA2 / Fold change vs veh, SKA2 / RFU, AFF3 / Fold change vs veh, AFF3 / RFU, LMF1 / Fold change vs veh, LMF1 / RFU, IPO11 / Fold change vs veh, IPO11 / RFU, DFFB / Fold change vs veh, DFFB / RFU, FOXP1 / Fold change vs veh, FOXP1 / RFU, CARD8 / Fold change vs veh, CARD8 / RFU, STRN3 / Fold change vs veh, STRN3 / RFU, ADK / Fold change vs veh, ADK / RFU, RASSF2 / Fold change vs veh, RASSF2 / RFU, WIPF1 / Fold change vs veh, WIPF1 / RFU, LARP1B / Fold change vs veh, LARP1B / RFU, RASA1 / Fold change vs veh, RASA1 / RFU, RB1 / Fold change vs veh, RB1 / RFU, PPFIA1 / Fold change vs veh, PPFIA1 / RFU, MAT2A / Fold change vs veh, MAT2A / RFU, CCT5 / Fold change vs veh, CCT5 / RFU, WDR92 / Fold change vs veh, WDR92 / RFU, CUX1 / Fold change vs veh, CUX1 / RFU, TTC7A / Fold change vs veh, TTC7A / RFU, TMEM135 / Fold change vs veh, TMEM135 / RFU, DEPTOR / Fold change vs veh, DEPTOR / RFU, CPM / Fold change vs veh, CPM / RFU, DNAJB6 / Fold change vs veh, DNAJB6 / RFU, CACNA2D3 / Fold change vs veh, CACNA2D3 / RFU, DTX4 / Fold change vs veh, DTX4 / RFU, TFCP2 / Fold change vs veh, TFCP2 / RFU, GMCL1 /// GMCL1P1 / Fold change vs veh, GMCL1 /// GMCL1P1 / RFU, AEBP2 / Fold change vs veh, AEBP2 / RFU, SNHG1 /// SNORD22 /// SNORD25 /// SNORD26 /// SNORD27 /// SNORD28 /// SNORD29 /// SNORD31 / Fold change vs veh, SNHG1 /// SNORD22 /// SNORD25 /// SNORD26 /// SNORD27 /// SNORD28 /// SNORD29 /// SNORD31 / Fold change (Aza/veh), C12orf56 (ProbeSet 11735607_a_at) / Fold change (ACY-1035/veh), C12orf56 (ProbeSet 11735607_a_at) / Fold change (Aza/veh), FGFR1OP (ProbeSet 11751329_s_at) / Fold change (ACY-1035/veh), FGFR1OP (ProbeSet 11751329_s_at) / Fold change (Aza/veh), VPS36 (ProbeSet 11739960_a_at) / Fold change (ACY-1035/veh), VPS36 (ProbeSet 11739960_a_at) / RFU SYPL1 (11715823_x_at) / Fold change /veh SYPL1 (11715823_x_at) / RFU IGFBP7 (11715501_s_at) / Fold change /veh IGFBP7 (11715501_s_at) / RFU REEP3 (11722064_at) / Fold change /veh REEP3 (11722064_at) / RFU IGLL1 (11728026_x_at) / Fold change /veh IGLL1 (11728026_x_at): dose or concentration left out as unconfirmed
Settings: MV-4-11 cells, 48 hours

SMILES: Nc1ccc(-c2cccs2)cc1NC(=O)c1ccc2c(c1)cc(C1CC1)n2CCN1CCOCC1 [ACY-1035]
- RFU C5orf56 (11738089_at): 10.10 RFU
